From patent US9707267B2, “Beta-turn peptidomimetic cyclic compounds for treating dry eye” (Mimetogen Pharmaceuticals, Inc., priority 2008, dated 2017)

Legend:
[1] = system: cultured rat conjunctival goblet cells; assay: Goblet cell glycoconjugate secretion, ELLA with UEA-1 (Example 2); format: cell-based; conditions: 2 hours; for Glycoconjugate Secretion, Mean ± sem: mean of rats; for Glycoconjugate Secretion, Mean ± SD: mean of rats/plates
Experimental: The culturing of conjunctival goblet cells from explant cultures was as previously described in Shatos, M. et al., “Isolation, Characterization, and Propagation of Rat Conjunctival Goblet Cells In Vitro,” IOVS 42:1455-1464 (2001), the entire content of which is incorporated herein by reference. The tissue was finely minced and individual pieces were anchored onto scored 6-well cultures dishes in 0.5 mL of complete RPMI-1640 (supplemented with 10% FBS, 2 mM glutamine and 100 μg/mL penicillin-streptomycin) and incubated at 37° C. in a humidified 5% CO2-atmosphere. Explant cultures were refed every 2 days. Within a few days, goblet cells migrated from the pieces and began to proliferate. After approximately one week, the tissue plugs were removed and the goblet cells were allowed to grow to confluence. Cells were passaged once by trypsinization of adherent cells with 0.05% trypsin-0.53 mM EDTA (pH 7.4), and plated in 8-well Laboratory Tek chamber slides (histochemistry) or in 96 well (proliferation), 24 well (secretion), or 6 well (western blots) culture plates with complete RPMI-1640 media.
To measure cell secretion, goblet cells were grown to confluence and then serum depleted for 2 hours prior to stimulation. Cells were incubated with compound D3 at 2, 10, and 50 μM, NGF at 0.1, 1 and 10 nM, and PMA at 0.1, 1, and 10 nM in serum-free RPMI for 2 hours. Goblet cell secretion was measured using an enzyme-linked lectin assay (ELLA). Briefly, an aliquot of the cell culture supernatant was transferred to a 96-well polystyrene microtiter plate in triplicate (Corning Life Sciences #2592, Fisher Scientific, Nepean, Ont). A dilution series of bovine submaxillary mucin (BSM) (Sigma, St. Louis, Mo.) was included on each plate as the standard (standard curve data and data showing that detection of BSM is linear between 0.003 and 0.1 μg not shown). The plates were coated by evaporation at 37° C. overnight. After, the plates were washed three times with wash buffer [PBS containing 0.3% BSA, 0.05% Tween-20] then blocked for nonspecific binding with PBS containing 3% BSA and 0.05% Tween-20 at 37° C. for 1 hour. The wells were rinsed three times in wash buffer, and then incubated in 2 μg/mL biotinylated UEA-1 diluted in wash buffer (Vector Labs, Burlingame, Calif.) at 37° C. for 1 hour. The wells were rinsed three times in wash buffer, and then incubated in 1 μg/mL HRP-conjugated neutravidin diluted in wash buffer (Pierce, Rockford, Ill.) at 37° C. for 1 hour. After the wells were rinsed three times in wash buffer, the color development was performed with TMB (Promega, Madison, Wis.) and stopped with 0.5N Sulfuric acid. The absorbance was read at 450 nm on a Benchmark Plus (Biorad). The goblet cells remaining in the culture wells were either scraped in RIPA buffer [1% TritonX-100, 20 mM Tris-HCl pH 7.5, 150 mM NaCl, 1.5 mM MgCl2, 1% Na deoxycholate, 1 mM EGTA, 1 mM EDTA, 0.1% SDS, 10% glycerol, 1 mM Na vanadate, 10 mM Na fluoride, 10 mM Na pyrophosphate, complete mini EDTA-free protease inhibitors (Roche Applied Science, Indianapolis, Ind.)] or 1M Tris-buffer (pH 7.5), collected and sonicated. The amount of protein in the cell homogenate was analyzed using the Bradford protein assay kit using a dilution series of bovine serum albumin (BSA) as the standard (BioRad, Montreal, PQ). Glycoconjugate secretion was normalized to total protein in the homogenate. Data was then expressed as fold increase above basal. […]

[2] = system: p42/44 MAPK; assay: Activation of p42/44 MAPK in goblet cells, Western blot (Example 2); format: cell-based, rat; conditions: 100 nM, 5 minutes, positive control
Experimental: The activation of p42/44 MAPK was examined using Western blot techniques. Goblet cells were serum starved in serum-free RPMI for 4-6 hrs prior to the addition of PMA (100 nM), NGF (1 or 10 nM), or MIM-D3 (10 or 50 μM) for 5 minutes at 37° C. After, cells were rinsed once in cold PBS, scraped in 100 μL of 1×SDS-PAGE sample buffer [62.5 mM Tris-HCl pH 6.8, 10% glycerol, 2% SDS, 5% β-mercaptoethanol, 0.02 mg/mL bromophenol blue] and sonicated for 20 minutes. The homogenates were centrifuged at 14,900 g for 15 min at 4° C. Proteins in a […] of the supernatant were separated by SDS-PAGE (8% acrylamide gels) and transferred to nitrocellulose membranes. The membranes were blocked for 2 hours in 5% non-fat dried milk in buffer containing 20 mM Tris-HCl, pH 8.0, 150 mM NaCl, and 0.01% Tween-20 (TBST). The blots were then probed with an antibody directed against the phosphorylated form of MAPK1/2 (Calbiochem, San Diego, Calif.) at 0.1 μg/mL in TBST containing 5% BSA overnight at 4° C., followed by a 1 hour incubation in HRP-conjugated secondary anti-mouse antibody (Sigma, St. Louis, Mo.) at room temperature in TBST containing 5% non-fat dried milk. Immunoreactive bands were visualized using the enhanced chemiluminescence method (Perkin Elmer, Waltham, Mass.). The blots were stripped at 55° C. for 30 minutes in stripping buffer [62.5 mM Tris-HCl pH 6.8, 2% SDS, 0.1M β-mercaptoethanol] followed by re-probing with an antibody directed against actin (1:5000 dilution, Sigma, St. Louis, Mo.) in TBST containing 5% non-fat dried milk and incubation in HRP-conjugated secondary anti-rabbit antibody. The immunoreactive bands were digitally scanned on an EPSON scanner and analyzed using NIH ImageJ v1.38x. The amount of phosphorylated MAPK in each sample was standardized to the amount of total actin protein in the sample.
To determine if compound D3 and NGF induced glycoconjugates secretion via activation of the MAPK pathway, cultured goblet cells from 3 independent rats were stimulated by 10 and 50 μM compound D3, 1 and 10 nM NGF or PMA (100 nM, the positive control) for 5 minutes and MAPK activity was measured by western blot analysis. A representative western blot from 3 independent rat goblet cell cultures is shown in FIG. 9, and the quantification is shown in FIG. 10. There was a statistically significant effect of treatment on MAPK activation (P<0.0001). Compound D3 increased MAPK activity above basal by 2.5±0.3 fold at 10 μM and 2.2±0.5 fold at 50 μM and NGF increased MAPK activity by 2.8±0.5 at 1 nM (P<0.05) and 1.7±0.2 at 10 nM.

[3] = system: rat conjunctival goblet cells; assay: Glycoconjugate secretion from rat conjunctival goblet cells, ELLA (Example 1); format: cell-based; conditions: 2 hours, mean±sem
Experimental: Cells derived from the explants were grown in RPMI 1640 supplemented with 10% fetal bovine serum (FBS) and penicillin (100 U/mL)/streptomycin (100 μg/mL) at 37° C. in a humidified 5% CO2-atmosphere for seventy-two hours. Contaminating nongoblet cells were removed by scraping them from the plate. During this time, goblet cells migrated from the pieces and began to proliferate. After one week, the goblet cells were trypsinized and plated in twenty-four well culture plates with RPMI-1640 media supplemented with 10% FBS.
To measure glycoconjugate secretion, the conjunctival goblet cells were grown to confluence and were serum deprived for two hours before addition of nerve growth factor (NGF), carbachol (Cch), compound D3, compound 3Aa and compound 3Ak for two hours. Compounds D3, 3Aa and 3Ak were administered at concentrations of 30 μm (micromolar), 10 μM, 1 μM and 0.3 μM. The vehicle used to dissolve the compounds, dimethyl sulfoxide (DMSO) was also included. DMSO was used as the basal control for the 30 μM concentration of compound, which was at 0.1% (v/v). The cholinergic agonist carbachol (Cch), added at 100 μM (micromolar), was a positive control for glycoconjugate secretion. The amount of glycoconjugate secreted into the media was measured by enzyme-linked lectin assay (ELLA). The media were collected and analyzed for amount of the lectin-detectable glycoconjugates, including mucins. The amount of secretion was measured by using the lectin UEA-I which is specific for rat conjunctival goblet cell mucins. Biotinylated UEA-I lectin and alkaline phosphatase-labeled streptavidin were used as described in Rios, J. D., et al., “Role of Neurotrophins and Neurotrophin Receptors in Rat Conjunctival Goblet Cell Secretion and Proliferation, Ophthalmology & Visual Science, 48: 1543-1551 (2007), the entire content of which is incorporated herein by reference. The cells were removed and sonicated, and the cell homogenate was analyzed for the total amount of protein by using the Bradford protein assay. […] Glycoconjugate secretion was expressed as the increase (x-fold) over basal.
Data for CGC glycoconjugate secretion and proliferation were expressed as the increase (x-fold) above basal value, which was standardized to 1.0. For example, for the 0.3 μM (micromolar), 1 μM and 10 μM doses, the CGC glycoconjugate secretion and proliferation were expressed as test compound over untreated cells. For the 30 μM dose, the CGC glycoconjugate secretion and proliferation were expressed as test compound over DMSO untreated cells. Results are expressed as the mean±sem.

CCCCCCCCCCCCCC(=O)O[C@@H]1[C@@H](C)[C@@]2(O)[C@@H](C=C(CO)C[C@]3(O)C(=O)C(C)=C[C@@H]23)[C@@H]2C(C)(C)[C@]12OC(C)=O [PMA, Phorbol-12-myristate-13-acetate, reference compound]
Glycoconjugate Secretion ([1]; 0.1 nM, Rat 2): 1.39 Fold increase above basal | Glycoconjugate Secretion ([1]; 0.1 nM, Rat 2 Plate 2): 3.2 μg glycoconjugate/mg total protein | Glycoconjugate Secretion ([1]; 0.1 nM, Rat 3): 1.41 Fold increase above basal | Glycoconjugate Secretion ([1]; 0.1 nM, Rat 3 Plate 1): 6.9 μg glycoconjugate/mg total protein | Glycoconjugate Secretion, Mean ± sem ([1]; 0.1 nM): 1.40 ± 0.01 Fold increase above basal | Glycoconjugate Secretion, Mean ± SD ([1]; 0.1 nM): 5.1 ± 2.6 μg glycoconjugate/mg total protein | Glycoconjugate Secretion ([1]; 1 nM, Rat 1): 1.05 Fold increase above basal | Glycoconjugate Secretion ([1]; 1 nM, Rat 1 Plate 2): 4.1 μg glycoconjugate/mg total protein | Glycoconjugate Secretion ([1]; 1 nM, Rat 2): 1.78 Fold increase above basal | Glycoconjugate Secretion ([1]; 1 nM, Rat 2 Plate 2): 4.1 μg glycoconjugate/mg total protein | Glycoconjugate Secretion, Mean ± sem ([1]; 1 nM): 1.42 ± 0.37 Fold increase above basal | Glycoconjugate Secretion, Mean ± SD ([1]; 1 nM): 4.1 ± 0 μg glycoconjugate/mg total protein | Glycoconjugate Secretion ([1]; 10 nM, Rat 1): 1.56 Fold increase above basal | Glycoconjugate Secretion ([1]; 10 nM, Rat 1 Plate 1): 11.3 μg glycoconjugate/mg total protein | Glycoconjugate Secretion ([1]; 10 nM, Rat 1 Plate 2): 3.5 μg glycoconjugate/mg total protein | Glycoconjugate Secretion ([1]; 10 nM, Rat 2): 1.30 Fold increase above basal | Glycoconjugate Secretion ([1]; 10 nM, Rat 2 Plate 2): 3.0 μg glycoconjugate/mg total protein | Glycoconjugate Secretion ([1]; 10 nM, Rat 3): 1.24 Fold increase above basal | Glycoconjugate Secretion ([1]; 10 nM, Rat 3 Plate 1): 6.1 μg glycoconjugate/mg total protein | Glycoconjugate Secretion ([1]; 10 nM, Rat 4): 0.85 Fold increase above basal | Glycoconjugate Secretion ([1]; 10 nM, Rat 4 Plate 2): 8.4 μg glycoconjugate/mg total protein | Glycoconjugate Secretion, Mean ± sem ([1]; 10 nM): 1.30 ± 0.25 Fold increase above basal | Glycoconjugate Secretion, Mean ± SD ([1]; 10 nM): 6.5 ± 3.5 μg glycoconjugate/mg total protein | increase in mucin secretion ([1]; 0.1, 1 and 10 nM, not dose-dependent): ~1.4 fold | MAPK activity above basal [2]: 6.1±0.7 fold

N=C(N)NCCC[C@@H]1NC(=O)c2cc(N)ccc2OCc2ccc(C(N)=O)cc2NC(=O)CNC1=O [Compound 3Ak]
CGC glycoconjugate secretion ([3]; 0.3 μM): 1.4±0.3 fold above basal | CGC glycoconjugate secretion ([3]; 1 μM): 1.1±0.3 fold above basal | CGC glycoconjugate secretion ([3]; 10 μM): 1.2±0.1 fold above basal | CGC glycoconjugate secretion ([3]; 30 μM, over DMSO basal): 1.1±0.3 fold above basal

C[N+](C)(C)CCOC(N)=O [Cch, carbachol, reference compound]
CGC glycoconjugate secretion ([3]; 100 μM, positive control): 1.3±0.3 fold above basal

CC[C@H](C)[C@@H]1NC(=O)c2cc(N)ccc2OCc2ccc(C(N)=O)cc2NC(=O)[C@H](CCCCN)NC1=O [Compound 3Aa]
CGC glycoconjugate secretion ([3]; 0.3 μM): 2.1±0.3 fold above basal | CGC glycoconjugate secretion ([3]; 1 μM): 1.6±0.3 fold above basal | CGC glycoconjugate secretion ([3]; 10 μM): 1.7±0.4 fold above basal | CGC glycoconjugate secretion ([3]; 30 μM, over DMSO basal): 2.1±0.7 fold above basal
